{
  "source": "patent EP1681292A1",
  "about": "“3-Amino-6-aryl(or 6-heteroaryl)-thieno¬2,3-b|pyridin-2-carboxylic acid amides, pharmaceutical compositions comprising the said and their use as inhibitors of TNFalpha release” (IBFB Pharma GmbH, priority 2005, dated 2006)",
  "data": [
    {"test_system": "TNFα-Freisetzung", "assay": "Inhibition of TNFα release after LPS stimulation of human whole blood (ELISA)", "format": "cell-based", "conditions": "human whole blood diluted 1:5 with RPMI 1640, LPS (Salmonella abortus equi) 1 µg/ml, 24 h at 37°C, TNFα in supernatant by ELISA; read-out: Hemmung der TNFα-Freisetzung, EC50", "from_the_text": "Methodenbeschreibung der Hemmung der TNFα Freisetzung nach LPS Stimulation von humanem Vollblut\nDie Stimulierung isolierter Leukozyten für die Freisetzung von Zytokinen kann auf verschiedenen Wegen erfolgen. Lipopolysaccharide (LPS) stellen einen Stimulus für die Untersuchung der Freisetzung von TNFα dar. LPS ist Bestandteil bakterieller Zellwände und wird beim Abtöten der Bakterien (durch Antibiotika oder das natürliche Immunsystem) freigesetzt. LPS stimuliert insbesondere die Aktivität phagozytierender Leukozyten (Gewebsmakrophagen, Granulozyten, Monozyten) und verursacht die Infiltration von Leukozyten vom peripheren Blut in das betroffene Gewebe. Ein Zytokin von besonderer Bedeutung für diese Mechanismen ist TNFα, das in großen Mengen durch die betroffenen Zellen sezerniert wird. Hauptquelle dabei sind Monozyten und Makrophagen. TNFα initiiert und prolongiert den Entzündungsprozess im Zusammenspiel mit anderen Mediatoren.\nFür die Untersuchung des Effektes auf die LPS-induzierte TNFα-Freisetzung wurde eine Methode verwendet, die von MARX et al. (Marx D, Tassabehji M, Heer S, Hüttenbrink KB, Szelenyi I (2002) Pulmonary Pharmacology & Therapeutics 15 7-15) beschrieben wurde. Die Methodenbeschreibung in verkürzter Darstellung: Humanes Blut verschiedener Spendern wird durch Zusatz von 10 mM Na-Citrat ungerinnbar gemacht und 1:5 mit RPMI 1640 Zellkulturmedium verdünnt. Die Verbindungen der allgemeinen Formel 1 sowie die Kontrollsubstanzen (z.B. Dexamethason) wurden den Blutproben in verschiedenen Konzentrationen hinzugefügt. 15 Minuten später wurden die Leukozyten durch Zusatz von Lipopolysacchariden (LPS) (aus Salmonella abortus equi) in einer Endkonzentration von 1 µg/ml stimuliert. Nach Inkubation der Testansätze für 24 Stunden bei 37°C. und unter 5% CO2 in wassergesättigter Luft, wurde das Blut zentrifugiert und die Konzentration an TNFα im zellfreien Überstand unter Verwendung eines käuflichen ELISA (BD Biosciences) nach Angaben des Herstellers exakt vermessen.", "units": {"EC50": "nM"}, "values": [
      {"smiles": "CSc1ccc(-c2cc(C)c3c(N)c(C(N)=O)sc3n2)cc1", "note": "[3-Amino-4-methyl-6-(4-methylthio-phenyl)-thieno[2,3-b]pyridin-2-carbonsäureamid]", "EC50": "< 5"},
      {"smiles": "NC(=O)c1sc2nc(-c3cccs3)cc(C(F)(F)F)c2c1N", "note": "[3-Amino-6-(2-thienyl)-4-trifluormethyl-thieno[2,3-b]pyridin-2-carbonsäureamid]", "EC50": "< 5"},
      {"smiles": "Cc1cc(-c2ccc3c(c2)OCCO3)nc2sc(C(N)=O)c(N)c12", "note": "[3-Amino-6-(3,4-dioxoethylen-phenyl)-4-methyl-thieno[2,3-b]pyridin-2-carbonsäureamid]", "EC50": "< 5"},
      {"smiles": "NC(=O)c1sc2nc(-c3ccc4c(c3)OCCO4)cc(C(F)(F)F)c2c1N", "note": "[3-Amino-6-(3,4-dioxoethylen-phenyl)-4-trifluormethyl-thieno[2,3-b]pyridin-2-carbonsäureamid]", "EC50": "< 5"},
      {"smiles": "Cc1cc(-c2ccc(Cl)cc2)nc2sc(C(N)=O)c(N)c12", "note": "[3-Amino-6-(4-chlor-phenyl)-4-methyl-thieno[2,3-b]pyridin-2-carbonsäureamid]", "EC50": "< 5"},
      {"smiles": "CSc1ccc(-c2cc(C(F)(F)F)c3c(N)c(C(N)=O)sc3n2)cc1", "note": "[3-Amino-6-(4-methylthio-phenyl)-4-trifluormethyl-thieno[2,3-b]pyridin-2-carbonsäureamid]", "EC50": "< 5"},
      {"smiles": "Cc1cccc(-c2cc(C)c3c(N)c(C(N)=O)sc3n2)c1", "note": "[Beispiel 2, 3-Amino-4-methyl-6-(3-methyl-phenyl)-thieno[2,3-b]pyridin-2-carbonsäureamid]", "EC50": "< 5"},
      {"smiles": "Cc1ccc(-c2cc(C)c3c(N)c(C(N)=O)sc3n2)cc1", "note": "[Beispiel 3, 3-Amino-4-methyl-6-(4-methyl-phenyl)-thieno[2,3-b]pyridin-2-carbonsäureamid]", "EC50": "< 5"},
      {"smiles": "COc1ccc(-c2cc(C)c3c(N)c(C(N)=O)sc3n2)cc1", "note": "[Beispiel 4, 3-Amino-4-methyl-6-(4-methoxy-phenyl)-thieno[2,3-b]pyridin-2-carbonsäureamid]", "EC50": "< 5"},
      {"smiles": "Cc1cc(-c2ccc(F)cc2)nc2sc(C(N)=O)c(N)c12", "note": "[Beispiel 6, 3-Amino-6-(4-fluor-phenyl)-4-methyl-thieno[2,3-b]pyridin-2-carbonsäureamid]", "EC50": "< 5"},
      {"smiles": "Cc1cc(-c2ccc(Br)cc2)nc2sc(C(N)=O)c(N)c12", "note": "[Beispiel 7, 3-Amino-6-(4-brom-phenyl)-4-methyl-thieno[2,3-b]pyridin-2-carbonsäureamid]", "EC50": "< 5"},
      {"smiles": "Cc1cc(-c2ccccc2)nc2sc(C(N)=O)c(N)c12", "note": "[Beispiel 8, 3-Amino-4-methyl-6-phenyl-thieno[2,3-b]pyridin-2-carbonsäureamid]", "EC50": "< 5"},
      {"smiles": "Cc1cc(-c2ccc3c(c2)OCO3)nc2sc(C(N)=O)c(N)c12", "note": "[Beispiel 9, 3-Amino-6-(3,4-dioxomethylen-phenyl)-4-methyl-thieno[2,3-b]pyridin-2-carbonsäureamid]", "EC50": "< 5"},
      {"smiles": "Cc1cc(-c2cccs2)nc2sc(C(N)=O)c(N)c12", "note": "[Beispiel 10, 3-Amino-4-methyl-6-(2-thienyl)-thieno[2,3-b]pyridin-2-carbonsäureamid]", "EC50": "< 5"},
      {"smiles": "Cc1ccc(-c2cc(C(F)F)c3c(N)c(C(N)=O)sc3n2)cc1", "note": "[Beispiel 11, 3-Amino-4-difluormethyl-6-(4-methyl-phenyl)-thieno[2,3-b]pyridin-2-carbonsäureamid]", "EC50": "< 5"},
      {"smiles": "CC(C)c1ccc(-c2cc(C(F)(F)F)c3c(N)c(C(N)=O)sc3n2)cc1", "note": "[Beispiel 12, 3-Amino-6-(4-isopropyl-phenyl)-4-trifluormethyl-thieno[2,3-b]pyridin-2-carbonsäureamid]", "EC50": "< 5"},
      {"smiles": "NC(=O)c1sc2nc(-c3ccccc3)cc(C(F)(F)F)c2c1N", "note": "[Beispiel 13, 3-Amino-6-phenyl-4-trifluormethyl-thieno[2,3-b]pyridin-2-carbonsäureamid]", "EC50": "< 5"},
      {"smiles": "Cc1ccc(-c2cc(C(F)(F)F)c3c(N)c(C(N)=O)sc3n2)cc1", "note": "[Beispiel 14, 3-Amino-6-(4-methyl-phenyl)-4-trifluormethyl-thieno[2,3-b]pyridin-2-carbonsäureamid]", "EC50": "< 5"},
      {"smiles": "CCc1ccc(-c2cc(C(F)(F)F)c3c(N)c(C(N)=O)sc3n2)cc1", "note": "[Beispiel 15, 3-Amino-6-(4-ethyl-phenyl)-4-trifluormethyl-thieno[2,3-b]pyridin-2-carbonsäureamid]", "EC50": "< 5"},
      {"smiles": "CCCc1ccc(-c2cc(C(F)(F)F)c3c(N)c(C(N)=O)sc3n2)cc1", "note": "[Beispiel 16, 3-Amino-6-(4-propyl-phenyl)-4-trifluormethyl-thieno[2,3-b]pyridin-2-carbonsäureamid]", "EC50": "< 5"},
      {"smiles": "Cc1ccc(-c2cc(C(F)(F)F)c3c(N)c(C(N)=O)sc3n2)cc1C", "note": "[Beispiel 18, 3-Amino-6-(3,4-dimethyl-phenyl)-4-trifluormethyl-thieno[2,3-b]pyridin-2-carbonsäureamid]", "EC50": "< 5"},
      {"smiles": "COc1ccc(-c2cc(C(F)(F)F)c3c(N)c(C(N)=O)sc3n2)cc1", "note": "[Beispiel 19, 3-Amino-6-(4-methoxy-phenyl)-4-trifluormethyl-thieno[2,3-b]pyridin-2-carbonsäureamid]", "EC50": "< 5"},
      {"smiles": "CCOc1ccc(-c2cc(C(F)(F)F)c3c(N)c(C(N)=O)sc3n2)cc1", "note": "[Beispiel 20, 3-Amino-6-(4-ethoxy-phenyl)-4-trifluormethyl-thieno[2,3-b]pyridin-2-carbonsäureamid]", "EC50": "< 5"},
      {"smiles": "NC(=O)c1sc2nc(-c3ccc(F)cc3)cc(C(F)(F)F)c2c1N", "note": "[Beispiel 21, 3-Amino-6-(4-fluor-phenyl)-4-trifluormethyl-thieno[2,3-b]pyridin-2-carbonsäureamid]", "EC50": "< 5"},
      {"smiles": "NC(=O)c1sc2nc(-c3ccc(Cl)cc3)cc(C(F)(F)F)c2c1N", "note": "[Beispiel 22, 3-Amino-6-(4-chlor-phenyl)-4-trifluormethyl-thieno[2,3-b]pyridin-2-carbonsäureamid]", "EC50": "< 5"},
      {"smiles": "NC(=O)c1sc2nc(-c3ccc(Br)cc3)cc(C(F)(F)F)c2c1N", "note": "[Beispiel 23, 3-Amino-6-(4-brom-phenyl)-4-trifluormethyl-thieno[2,3-b]pyridin-2-carbonsäureamid]", "EC50": "< 5"},
      {"smiles": "NC(=O)c1sc2nc(-c3ccc4ccccc4c3)cc(C(F)(F)F)c2c1N", "note": "[Beispiel 25, 3-Amino-6-(2-naphthyl)-4-trifluormethyl-thieno[2,3-b]pyridin-2-carbonsäureamid]", "EC50": "< 5"},
      {"smiles": "NC(=O)c1sc2nc(-c3ccc4c(c3)OCO4)cc(C(F)(F)F)c2c1N", "note": "[Beispiel 26, 3-Amino-6-(3,4-dioxomethylen-phenyl)-4-trifluormethyl-thieno[2,3-b]pyridin-2-carbonsäureamid]", "EC50": "< 5"},
      {"smiles": "CCc1cc(-c2ccc(C)cc2)nc2sc(C(N)=O)c(N)c12", "note": "[Beispiel 27, 3-Amino-4-ethyl-6-(4-methyl-phenyl)-thieno[2,3-b]pyridin-2-carbonsäureamid]", "EC50": "< 5"},
      {"smiles": "CCc1cc(-c2ccc(Cl)cc2)nc2sc(C(N)=O)c(N)c12", "note": "[Beispiel 30, 3-Amino-6-(4-chlor-phenyl)-4-ethyl-thieno[2,3-b]pyridin-2-carbonsäureamid]", "EC50": "< 5"},
      {"smiles": "CCc1cc(-c2ccc(SC)cc2)nc2sc(C(N)=O)c(N)c12", "note": "[Beispiel 31, 3-Amino-4-ethyl-6-(4-methylthio-phenyl)-thieno[2,3-b]pyridin-2-carbonsäureamid]", "EC50": "< 5"}
    ]}
  ]
}
